Values of other authors as cited in US20060251704A1, “Methods and devices for efficacious treatment of aphthous ulcers” (priority 2005, published 2006).

System: aphthous ulcers (RAS)
Conditions: by the 6th day

In the case of `CC(C)c1ccc2oc3nc(N)c(C(=O)O)cc3c(=O)c2c1` [amlexanox], the “patients with healed ulcers” value (vehicle control 54.7%) is listed as 65.6% and the patients pain free (patients with RAS, control group 72.8%) is listed as 82.8%.
